Data as given in PubChem BioAssay AID2060349 (Molecular Pharmacology Branch, DTP, NCI, 2025).

System: 762968-020-R-J2-PDC spheroids viability
Assay: Anticancer human tumor 762968-020-R-J2-PDC patient-derived colon carcinoma cell line growth inhibition [TAK]
Settings: spheroids with HUVEC and MSC; for IC50: curve of first compound; for viability, T/C: stronger effect = lower value
From the text: Combinatorial screen of targeted agents with TAK-243 and ipatasertib in multi-cell type tumor spheroids
A high-throughput screen of multi-cell type tumor spheroids was designed to identify active combinations of targeted small molecules and TAK-243 or ipatasertib. Complex spheroids include a stromal component modeled by human endothelial cells (HUVEC) and fibroblasts modeled by human mesenchymal stem cells (MSCs). The concentration ranges selected for each drug and investigational agent were based upon clinically achievable concentrations if the clinical Cmax of the agent was known.
Compounds. The drugs and investigational agents: TAK-243 (785004), ipatasertib (767898), everolimus (733504), selumetinib (741078), bortezomib (756655), trametinib (758246), ixazomib (758254), vemurafenib (761431), dabrafenib (764134), sapanisertib (764658), alpelisib (765974), and copanlisib (816437), were obtained from the National Cancer Institute (NCI) Developmental Therapeutics Program Chemical Repository. The FDA-approved anticancer drug set is available from the NCI Developmental Therapeutics Program. […] The stock solutions were prepared in dimethyl sulfoxide (DMSO, Sigma-Aldrich, St. Louis, MO, cat. D2650) at 800-fold the tested concentration and stored at -70 degrees C prior to their use. All drugs and investigational agents were tested over a range starting from a high concentration at or near the clinical Cmax and decreasing in half-log increments. If the clinical Cmax for an agent had not been determined, the highest concentration tested was 10 microM.
NCI60 Cell Culture. NCI60 cell lines were obtained from the NCI Developmental Therapeutics Program Tumor Repository. For each lot of cells, the Repository performed Applied Biosystems AmpFLSTR Identifiler testing with PCR amplification to confirm consistency with the published Identifier STR profile for each cell line. Cells were kept in continuous culture for no more than 20 passages. The optimal seeding densities for each of the cell lines at each time point assessed were determined prior to performing the concentration response studies. Briefly, the NCI60 human tumor lines were grown as monolayers in RPMI 1640 medium supplemented with 10% FBS and 2 mmol/L L-glutamine.
An additional 2 lines were from the NCI60 cell line panel including melanomas, MALME-3M and SK-MEL-2. Pooled donor human umbilical vein endothelial cells (HUVEC, Lonza, cat. CC-2519) and human mesenchymal stem cells (hMSC, Lonza, cat. PT-2501) were purchased from Lonza (Walkersville, MD).
PDMR cell lines were grown in complete medium (DC medium): Dulbecco's modified Eagle's medium (DMEM)/F12 supplemented with 5% fetal bovine serum (FBS), 2 mM L-glutamine, 100 U/mL penicillin and 100 µg/ml streptomycin, 0.4 µg/ml hydrocortisone, 10 ng/ml epidermal growth factor (EGF) recombinant human protein, 24 µg/mL adenine, and 0.1 mg/mL primocin. During culture from frozen stock vials, PDMR cells were cultured in the same medium containing 10 µM Y-27632 (see Table 3). The PDCs were cultured in complete DMEM/F12 media without 10 microM Y-27632 dihydrochloride for at least two passages prior to the screen. The pooled donor HUVEC and hMSC were cultured in endothelial cell growth medium 2 (PromoCell, Heidelberg, Germany, cat. C-22011) and mesenchymal stem cell growth medium 2 (PromoCell, cat. C-28009), respectively. For all experiments, HUVEC and hMSC were used at passages </=5.
For the pre-screen, cell seeding densities were determined from a titration spanning the range from 5,000 to 313 cells per well. The mct-spheroids including 60% malignant cells, 25% HUVEC and 15% MSC dispensed as a mixture into U-bottom Ultra-Low Attachment 384-well plates (Corning, NY)
High-throughput Drug Combination Screening.
Prior to their inoculation into 384-well plates, malignant cells, HUVEC, and hMSC were removed from T flasks using TrypLE express (Thermo Fisher Scientific, cat. 12605036) and harvested by centrifugation for 5 min at 233 x g. […]
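Also: spheroids exposed to drug for 7 days before readout.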
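For viability, T/C in this document: 100% = DMSO vehicle control wells.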

CC(=O)Nc1cccc(-n2c(=O)n(C3CC3)c(=O)c3c(Nc4ccc(I)cc4F)n(C)c(=O)c(C)c32)c1 + CC(C)NCC(C(=O)N1CCN(c2ncnc3c2C(C)CC3O)CC1)c1ccc(Cl)cc1
IC50 (second compound 0.3 µM): 20.2 nM
IC50 (second compound 0.949 µM): 20.8 nM
IC50 (second compound 3 µM): 23.1 nM
IC50 (second compound 9.49 µM): 17.7 nM
IC50 (second compound 30 µM): 16.2 nM
viability, T/C (second compound 0.3 µM, first compound 94.9 pM): 98.7%
viability, T/C (second compound 0.3 µM, first compound 0.0003 µM): 104%
viability, T/C (second compound 0.3 µM, first compound 0.000949 µM): 91.6%
viability, T/C (second compound 0.3 µM, first compound 0.003 µM): 82.2%
viability, T/C (second compound 0.3 µM, first compound 0.00949 µM): 70.1%
viability, T/C (second compound 0.3 µM, first compound 0.03 µM): 39.7%
viability, T/C (second compound 0.949 µM, first compound 94.9 pM): 92.9%
viability, T/C (second compound 0.949 µM, first compound 0.0003 µM): 98.1%
viability, T/C (second compound 0.949 µM, first compound 0.000949 µM): 91.8%
viability, T/C (second compound 0.949 µM, first compound 0.003 µM): 96%
viability, T/C (second compound 0.949 µM, first compound 0.00949 µM): 74.5%
viability, T/C (second compound 0.949 µM, first compound 0.03 µM): 38.5%
viability, T/C (second compound 3 µM, first compound 94.9 pM): 101%
viability, T/C (second compound 3 µM, first compound 0.0003 µM): 103%
viability, T/C (second compound 3 µM, first compound 0.000949 µM): 97.4%
viability, T/C (second compound 3 µM, first compound 0.003 µM): 90.2%
viability, T/C (second compound 3 µM, first compound 0.00949 µM): 80.2%
viability, T/C (second compound 3 µM, first compound 0.03 µM): 41.1%
viability, T/C (second compound 9.49 µM, first compound 94.9 pM): 96.1%
viability, T/C (second compound 9.49 µM, first compound 0.0003 µM): 99.1%
viability, T/C (second compound 9.49 µM, first compound 0.000949 µM): 95.6%
viability, T/C (second compound 9.49 µM, first compound 0.003 µM): 80.6%
viability, T/C (second compound 9.49 µM, first compound 0.00949 µM): 67.3%
viability, T/C (second compound 9.49 µM, first compound 0.03 µM): 36.3%
viability, T/C (second compound 30 µM, first compound 94.9 pM): 90.3%
viability, T/C (second compound 30 µM, first compound 0.0003 µM): 87.7%
viability, T/C (second compound 30 µM, first compound 0.000949 µM): 80.3%
viability, T/C (second compound 30 µM, first compound 0.003 µM): 71.4%
viability, T/C (second compound 30 µM, first compound 0.00949 µM): 60.9%
viability, T/C (second compound 30 µM, first compound 0.03 µM): 38.8%

CC(C)CC(NC(=O)C(Cc1ccccc1)NC(=O)c1cnccn1)B(O)O (stereo not given) + CC(C)NCC(C(=O)N1CCN(c2ncnc3c2C(C)CC3O)CC1)c1ccc(Cl)cc1
IC50 (second compound 0.3 µM): > 10 nM
IC50 (second compound 0.949 µM): > 10 nM
IC50 (second compound 3 µM): > 10 nM
IC50 (second compound 9.49 µM): > 10 nM
IC50 (second compound 30 µM): > 10 nM
viability, T/C (second compound 0.3 µM, first compound 31.6 pM): 101%
viability, T/C (second compound 0.3 µM, first compound 0.0001 µM): 101%
viability, T/C (second compound 0.3 µM, first compound 0.000316 µM): 108%
viability, T/C (second compound 0.3 µM, first compound 0.001 µM): 102%
viability, T/C (second compound 0.3 µM, first compound 0.00316 µM): 98.3%
viability, T/C (second compound 0.3 µM, first compound 0.01 µM): 98.1%
viability, T/C (second compound 0.949 µM, first compound 31.6 pM): 103%
viability, T/C (second compound 0.949 µM, first compound 0.0001 µM): 102%
viability, T/C (second compound 0.949 µM, first compound 0.000316 µM): 96.1%
viability, T/C (second compound 0.949 µM, first compound 0.001 µM): 100%
viability, T/C (second compound 0.949 µM, first compound 0.00316 µM): 105%
viability, T/C (second compound 0.949 µM, first compound 0.01 µM): 85.5%
viability, T/C (second compound 3 µM, first compound 31.6 pM): 108%
viability, T/C (second compound 3 µM, first compound 0.0001 µM): 109%
viability, T/C (second compound 3 µM, first compound 0.000316 µM): 106%
viability, T/C (second compound 3 µM, first compound 0.001 µM): 98.8%
viability, T/C (second compound 3 µM, first compound 0.00316 µM): 106%
viability, T/C (second compound 3 µM, first compound 0.01 µM): 89%
viability, T/C (second compound 9.49 µM, first compound 31.6 pM): 98.5%
viability, T/C (second compound 9.49 µM, first compound 0.0001 µM): 98.7%
viability, T/C (second compound 9.49 µM, first compound 0.000316 µM): 99.3%
viability, T/C (second compound 9.49 µM, first compound 0.001 µM): 104%
viability, T/C (second compound 9.49 µM, first compound 0.00316 µM): 98.9%
viability, T/C (second compound 9.49 µM, first compound 0.01 µM): 97.5%
viability, T/C (second compound 30 µM, first compound 31.6 pM): 87.7%
viability, T/C (second compound 30 µM, first compound 0.0001 µM): 91.9%
viability, T/C (second compound 30 µM, first compound 0.000316 µM): 87.4%
viability, T/C (second compound 30 µM, first compound 0.001 µM): 85.4%
viability, T/C (second compound 30 µM, first compound 0.00316 µM): 95.3%
viability, T/C (second compound 30 µM, first compound 0.01 µM): 87.2%
